Data: patent US20210285949A1 (priority 2020, published 2021)
Where two headings read alike, the source gives them in different places.

Experiments:
[1] = tested on: endotoxemic rats; settings: pre-treatment; cited from earlier work
[2] = tested on: mice with CLP-induced sepsis; settings: pre-treatment, cited from earlier work
[3] = cited from earlier work
[4] = tested on: extreme-critically ill COVID-19 patients with acute respiratory distress syndrome (ARDS); settings: cited from earlier work
[5] = tested on: patients with septic shock and elevated adrenomedullin; assay: AdrenOSS-2 phase II clinical trial; type: in vivo, human
From the text: AdrenOSS-2 is a double-blind, placebo-controlled, randomized, multicenter, proof of concept and dose-finding phase II clinical trial to investigate the safety, tolerability and efficacy of the N-terminal ADM antibody named Adrecizumab in patients with septic shock and elevated adrenomedullin (Geven et al. BMJ Open 2019; 9:e024475). In total, 301 patients with septic shock and bio-ADM concentration >70 pg/mL were randomized (2:1:1) to treatment with a single intravenous infusion over approximately 1 hour with either placebo (n=152), adrecizumab […] (n=72) or Adrecizumab […] (n=77). All-cause mortality within 28 (90) days after inclusion was 25.8% (34.8%). Mean age was 68.4 years and 61% were male. For the per protocol analysis, n=294 patients remained eligible, and 14-day all-cause mortality rate was 18.5%.
Furthermore, different subpopulations of the cohort were analyzed. Main outcomes were 28-day mortality, change in Horovitz Index (PaO2/FiO2) (at 24 h/48 h/72 h), change in SOFA score (at 24 h/48 h/72 h) or change in respiratory SOFA score component (also based on PaO2/FiO2) (at 24 h/48 h/72 h). All p-values are 2-sided and a p-value of 0.20 should be considered significant.

For “Adrecizumab: humanized N-terminal anti-ADM monoclonal antibody, heavy chain SEQ ID NO: 35, light chain SEQ ID NO: 36”, the renal vascular leakage [1] is given as “attenuated”, the renal vascular leakage ([2]; mice with CLP-induced sepsis) is given as “attenuated” and the 7-day survival ([2]; repeated dose administration (control 0%)) is given as 40%. The 7-day survival ([2]; single dose administration (control 10%)) was 50%, the “circulating ADM following administration” value ([3]; animal and human data) was “potent, dose-dependent increase” and the “safety and tolerability, serious adverse events” value ([3]; phase I study) was “no serious adverse events were observed”. The mortality ([4]; compared with mortality calculated by the SOFA score) was “lower than expected”, the PaO2/FiO2 ([4]; single dose, within 12 days) was “increased” and the “SOFA score and disease severity score” value ([4]; single dose, within 12 days) was “decreased in five out of the seven surviving patients”. The “inflammatory parameters C-reactive protein, procalcitonin, and interleukin-6” value ([4]; single dose) was “decreased”, the “change in Horovitz-Index” value ([5]; Horovitz-Index <170 and mechanical ventilation (n=48), after 24 hours (0.48)) was “trended to be higher” and the “change in SOFA score vs placebo” value ([5]; Horovitz-Index <170 and mechanical ventilation (n=48), after 24 hours, p=0.032) was “significantly lower”. For the same substance, the “change in SOFA score vs placebo” value ([5]; Horovitz-Index <170 and mechanical ventilation (n=48), after 48 hours, p=0.012) was “significantly lower”, the “change in Horovitz-Index, mean increase” value ([5]; Horovitz-Index <170 and mechanical ventilation (n=48), after 48 hours, p=0.09) was 64.2 and the “change in SOFA score vs placebo” value ([5]; Horovitz-Index <170 and mechanical ventilation (n=48), after 72 hours, p=0.028) was “significantly lower”. For the same substance, the “change in Horovitz-Index, mean increase” value ([5]; Horovitz-Index <170 and mechanical ventilation (n=48), after 72 hours, p=0.11) was 66.4, the “28-day mortality vs placebo” value ([5]; Horovitz-Index <170 and mechanical ventilation at baseline (n=48), p=0.37) was “trended to be lower” and the “change in SOFA score vs placebo” value ([5]; mechanical ventilation at baseline (n=161), after 24 hours, p=0.002) was “significantly lower”. The “change in respiratory SOFA score vs placebo” value ([5]; mechanical ventilation at baseline (n=161), after 24 hours, p=0.021) was “significantly lower”, the “change in Horovitz-Index” value ([5]; mechanical ventilation at baseline (n=161), after 48 hours, p=0.007) was “significantly higher” and the “change in respiratory SOFA score vs placebo” value ([5]; mechanical ventilation at baseline (n=161), after 48 hours, p=0.011) was “significantly lower”. The “change in SOFA score vs placebo” value ([5]; mechanical ventilation at baseline (n=161), after 48 hours, p=0.109) was “significantly lower”, the “change in respiratory SOFA score vs placebo” value ([5]; mechanical ventilation at baseline (n=161), after 72 hours, p=0.066) was “significantly lower” and the “change in Horovitz-Index” value ([5]; mechanical ventilation at baseline (n=161), after 72 hours, p=0.087) was “significantly higher”. For the same substance, the “change in SOFA score vs placebo” value ([5]; mechanical ventilation at baseline (n=161), after 72 hours, p=0.31) was “trended to be lower”, the “change in Horovitz-Index, mean increase” value ([5]; mechanical ventilation at baseline (n=161), at 24 hours, p=0.155) was 56.2 and the “28-day mortality vs placebo” value ([5]; mechanical ventilation at baseline (n=161), p=0.157) was “significantly lower”. The “change in SOFA score vs placebo” value ([5]; shock patients with ALI/ARDS (n=80), after 24 hours, p=0.005) was “significantly lower”, the “change in respiratory SOFA score vs placebo” value ([5]; shock patients with ALI/ARDS (n=80), after 24 hours, p=0.26) was “trended to be lower” and the “change in SOFA score vs placebo” value ([5]; shock patients with ALI/ARDS (n=80), after 48 hours, p=0.025) was “significantly lower”. The “change in respiratory SOFA score vs placebo” value ([5]; shock patients with ALI/ARDS (n=80), after 48 hours, p=0.09) was “significantly lower” and the “change in SOFA score vs placebo” value ([5]; shock patients with ALI/ARDS (n=80), after 72 hours, p=0.38) was “trended to be lower”.
